From patent publication US20210253557A1, “SUBSTITUTED TRIAZOLE DERIVATIVES AND USES THEREOF” (Bayer Pharma Aktiengesellschaft, priority 2017, published 2021) come the findings set out here.

The structures appear in SMILES notation.

The target in one assay is T1, human V2 receptor (Homo sapiens, UniProt P30518).
T1 construct: expressed in transfected cells; host or cells: CHO K1 (ATCC) expressing firefly luciferase under a CRE-responsive promoter
Kind of assay: Cellular in vitro assay for determining vasopressin receptor activity (V2, CRE-luciferase). Format: cell-based. Conditions: CHO cell line transfected with the human V2 receptor; [Arg8]-vasopressin at EC50 concentration; read-out: IC50 hV2. In short, it runs like this: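 Antagonism was measured as inhibition of a 3-h, EC50-level [Arg8]-vasopressin stimulation, with compounds tested at several concentrations, yielding IC50 values. The read-out was cAMP-driven CRE-luciferase luminescence after lysis, in recombinant CHO K1 cells carrying human V2 receptor. Cells were seeded in 2% FCS DMEM/F12 one day earlier.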

The target of a further assay is T2, human V1a receptor (Homo sapiens, UniProt P37288).
T2 construct: expressed in transfected cells; host or cells: CHO K1 (ATCC), also stably transfected with a modified aequorin
Kind of assay: Cellular in vitro assay for determining vasopressin receptor activity (V1a, aequorin luminescence). Format: cell-based. Conditions: for IC50: CHO cell line transfected with the human V1a receptor, [Arg8]-vasopressin at EC50 concentration, read-out: IC50 hV1a; for ratio IC50 hV2/hV1a: selectivity ratio of IC50 hV2 to IC50 hV1a.

T1 sequence (P30518 whole entry): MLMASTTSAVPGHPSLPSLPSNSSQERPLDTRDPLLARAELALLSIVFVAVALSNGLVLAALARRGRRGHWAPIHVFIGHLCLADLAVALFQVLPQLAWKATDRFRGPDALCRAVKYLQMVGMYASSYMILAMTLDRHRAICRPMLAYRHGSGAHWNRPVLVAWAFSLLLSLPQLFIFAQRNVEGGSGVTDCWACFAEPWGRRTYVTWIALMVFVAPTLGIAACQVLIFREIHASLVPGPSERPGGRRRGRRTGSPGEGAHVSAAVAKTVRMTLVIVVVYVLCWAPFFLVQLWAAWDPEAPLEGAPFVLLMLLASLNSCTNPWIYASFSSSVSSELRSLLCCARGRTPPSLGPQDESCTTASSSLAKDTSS
T2 sequence (P37288 whole entry): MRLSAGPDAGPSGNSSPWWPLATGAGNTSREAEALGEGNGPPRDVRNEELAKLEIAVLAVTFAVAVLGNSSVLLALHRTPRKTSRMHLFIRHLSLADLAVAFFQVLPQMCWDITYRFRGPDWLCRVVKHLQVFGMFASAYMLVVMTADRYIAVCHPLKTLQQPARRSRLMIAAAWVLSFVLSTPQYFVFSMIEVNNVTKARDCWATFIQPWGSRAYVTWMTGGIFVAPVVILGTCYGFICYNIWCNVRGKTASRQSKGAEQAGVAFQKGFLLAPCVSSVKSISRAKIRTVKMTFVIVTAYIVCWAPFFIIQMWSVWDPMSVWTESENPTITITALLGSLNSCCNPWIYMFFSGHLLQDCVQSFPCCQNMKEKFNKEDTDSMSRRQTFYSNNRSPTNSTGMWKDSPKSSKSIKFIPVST

Usually IC50 stands for the concentration at which inhibition is half-maximal. Regarding `C[C@@H](OC(N)=O)c1nc(Cn2nc(-c3ccc(Cl)cc3)n(C[C@H](O)C(F)(F)F)c2=O)nn1-c1ccc(F)cc1Cl` [Example 4, (1R)-1-[1-(2-Chloro-4-fluorophenyl)-3-({3-(4-chlorophenyl)-5-oxo-4-[(2S)-3,3,3-trifluoro-2-hydroxypropyl]-4,5-dihydro-1H-1,2,4-triazol-1-yl}methyl)-1H-1,2,4-triazol-5-yl]ethyl Carbamate], at human V2 receptor, the IC50 stood at 0.0134 µM. In addition, on human V1a receptor, the IC50 was found to be 0.00146 µM and the “ratio IC50 hV2/hV1a” value is listed as 9.2.

In the case of `C[C@H](OC(N)=O)c1nc(Cn2nc(-c3ccc(Cl)cc3)n(C[C@H](O)C(F)(F)F)c2=O)nn1-c1ccccc1OC(F)F` [Example 5, (1S)-1-{3-({3-(4-Chlorophenyl)-5-oxo-4-[(2S)-3,3,3-trifluoro-2-hydroxypropyl]-4,5-dihydro-1H-1,2,4-triazol-1-yl}methyl)-1-[2-(difluoromethoxy)phenyl]-1H-1,2,4-triazol-5-yl}ethyl Carbamate], on human V2 receptor, the half-maximal inhibitory concentration (IC50) is 0.00705 µM. Further, on human V1a receptor, the IC50 was 0.0016 µM and the “ratio IC50 hV2/hV1a” value was determined as 4.4.

`C[C@@H](OC(N)=O)c1nc(Cn2nc(-c3ccc(Cl)cc3)n(C[C@H](O)C(F)(F)F)c2=O)nn1-c1ccccc1OC(F)F` [Example 6, (1R)-1-{3-({3-(4-Chlorophenyl)-5-oxo-4-[(2S)-3,3,3-trifluoro-2-hydroxypropyl]-4,5-dihydro-1H-1,2,4-triazol-1-yl}methyl)-1-[2-(difluoromethoxy)phenyl]-1H-1,2,4-triazol-5-yl}ethyl Carbamate]: the half-inhibitory concentration (IC50) came out at 0.0207 µM at human V2 receptor and 0.00081 µM on human V1a receptor. Also, at human V1a receptor, the “ratio IC50 hV2/hV1a” value is listed as 25.6.

Take `C[C@H](OC(N)=O)c1nc(Cn2nc(-c3ccc(Cl)cc3)n(C[C@H](O)C(F)(F)F)c2=O)nn1-c1ccccc1OC(F)(F)F` [Example 7, (1S)-1-{3-({3-(4-Chlorophenyl)-5-oxo-4-[(2S)-3,3,3-trifluoro-2-hydroxypropyl]-4,5-dihydro-1H-1,2,4-triazol-1-yl}methyl)-1-[2-(trifluoromethoxy)phenyl]-1H-1,2,4-triazol-5-yl}ethyl Carbamate]: the IC50 on human V2 receptor amounted to 0.0267 µM. On human V1a receptor, the IC50 was 0.0036 µM and the “ratio IC50 hV2/hV1a” value is on record as 7.4.

For the compound `C[C@@H](OC(N)=O)c1nc(Cn2nc(-c3ccc(Cl)cc3)n(C[C@H](O)C(F)(F)F)c2=O)nn1-c1ccccc1OC(F)(F)F` [Example 8, (1R)-1-{3-({3-(4-Chlorophenyl)-5-oxo-4-[(2S)-3,3,3-trifluoro-2-hydroxypropyl]-4,5-dihydro-1H-1,2,4-triazol-1-yl}methyl)-1-[2-(trifluoromethoxy)phenyl]-1H-1,2,4-triazol-5-yl}ethyl Carbamate], the IC50 on human V2 receptor came to 0.161 µM; at human V1a receptor, 0.00085 µM. In addition, the “ratio IC50 hV2/hV1a” value on human V1a receptor is recorded as 190.5.

`C[C@H](OC(N)=O)c1nc(Cn2nc(-c3ccc(Cl)cc3)n(C[C@H](O)C(F)(F)F)c2=O)nn1-c1ccccc1S(N)(=O)=O` [Example 9, (1S)-1-[3-({3-(4-Chlorophenyl)-5-oxo-4-[(2S)-3,3,3-trifluoro-2-hydroxypropyl]-4,5-dihydro-1H-1,2,4-triazol-1-yl}methyl)-1-(2-sulfamoylphenyl)-1H-1,2,4-triazol-5-yl]ethyl Carbamate]: the concentration for half-maximal inhibition (IC50) came out at 0.135 µM at human V2 receptor and 0.0315 µM on human V1a receptor. In addition, on human V1a receptor, the “ratio IC50 hV2/hV1a” value worked out at 4.3.

As to `C[C@H](OC(N)=O)c1nc(Cn2nc(-c3ccc(Cl)cc3)n(C[C@H](O)C(F)(F)F)c2=O)nn1-c1ccccn1` [Example 10, (1S)-1-[3-({3-(4-Chlorophenyl)-5-oxo-4-[(2S)-3,3,3-trifluoro-2-hydroxypropyl]-4,5-dihydro-1H-1,2,4-triazol-1-yl}methyl)-1-(pyridin-2-yl)-1H-1,2,4-triazol-5-yl]ethyl Carbamate], the IC50 on human V2 receptor amounted to 0.105 µM. For the same compound, at human V1a receptor, the IC50 worked out at 0.0525 µM and the “ratio IC50 hV2/hV1a” value came out at 2.0.

`C[C@@H](OC(N)=O)c1nc(Cn2nc(-c3ccc(Cl)cc3)n(C[C@H](O)C(F)(F)F)c2=O)nn1-c1ccccn1` [Example 11, (1R)-1-[3-({3-(4-Chlorophenyl)-5-oxo-4-[(2S)-3,3,3-trifluoro-2-hydroxypropyl]-4,5-dihydro-1H-1,2,4-triazol-1-yl}methyl)-1-(pyridin-2-yl)-1H-1,2,4-triazol-5-yl]ethyl Carbamate]: the IC50 on human V2 receptor was found to be 0.225 µM. For the same compound, on human V1a receptor, the IC50 worked out at 0.115 µM and the “ratio IC50 hV2/hV1a” value came to 2.0.

For `C[C@H](OC(N)=O)c1nc(Cn2nc(-c3ccc(Cl)cc3)n(C[C@H](O)C(F)(F)F)c2=O)nn1-c1ncccc1F` [Example 12, (1S)-1-[3-({3-(4-Chlorophenyl)-5-oxo-4-[(2S)-3,3,3-trifluoro-2-hydroxypropyl]-4,5-dihydro-1H-1,2,4-triazol-1-yl}methyl)-1-(3-fluoropyridin-2-yl)-1H-1,2,4-triazol-5-yl]ethyl Carbamate], the half-inhibitory concentration (IC50) on human V2 receptor is 0.127 µM. On human V1a receptor, the half-maximal inhibitory concentration (IC50) worked out at 0.0355 µM and the “ratio IC50 hV2/hV1a” value came to 3.6.

In the case of `C[C@@H](OC(N)=O)c1nc(Cn2nc(-c3ccc(Cl)cc3)n(C[C@H](O)C(F)(F)F)c2=O)nn1-c1ncccc1F` [Example 13, (1R)-1-[3-({3-(4-Chlorophenyl)-5-oxo-4-[(2S)-3,3,3-trifluoro-2-hydroxypropyl]-4,5-dihydro-1H-1,2,4-triazol-1-yl}methyl)-1-(3-fluoropyridin-2-yl)-1H-1,2,4-triazol-5-yl]ethyl Carbamate], the 50% inhibitory concentration (IC50) at human V2 receptor worked out at 0.035 µM. For the same compound, on human V1a receptor, the 50% inhibitory concentration (IC50) is 0.0135 µM and the “ratio IC50 hV2/hV1a” value amounted to 2.6.

Turning to `C[C@H](OC(N)=O)c1nc(Cn2nc(-c3ccc(Cl)cc3)n(C[C@H](O)C(F)(F)F)c2=O)nn1-c1ncccc1Cl` [Example 14, (1S)-1-[3-({3-(4-Chlorophenyl)-5-oxo-4-[(2S)-3,3,3-trifluoro-2-hydroxypropyl]-4,5-dihydro-1H-1,2,4-triazol-1-yl}methyl)-1-(3-chloropyridin-2-yl)-1H-1,2,4-triazol-5-yl]ethyl Carbamate], the IC50 on human V2 receptor came to 0.052 µM. In addition, at human V1a receptor, the IC50 amounted to 0.00175 µM and the “ratio IC50 hV2/hV1a” value is 29.7.

On to `C[C@@H](OC(N)=O)c1nc(Cn2nc(-c3ccc(Cl)cc3)n(C[C@H](O)C(F)(F)F)c2=O)nn1-c1ncccc1Cl` [Example 15, (1R)-1-[3-({3-(4-Chlorophenyl)-5-oxo-4-[(2S)-3,3,3-trifluoro-2-hydroxypropyl]-4,5-dihydro-1H-1,2,4-triazol-1-yl}methyl)-1-(3-chloropyridin-2-yl)-1H-1,2,4-triazol-5-yl]ethyl Carbamate], for which the IC50 at human V2 receptor is 0.0355 µM; on human V1a receptor, 0.00102 µM. Besides, at human V1a receptor, the “ratio IC50 hV2/hV1a” value came out at 34.8.

Consider `C[C@H](OC(N)=O)c1nc(Cn2nc(-c3ccc(Cl)cc3)n(C[C@H](O)C(F)(F)F)c2=O)nn1-c1ccc(Cl)cn1` [Example 16, (1S)-1-[3-({3-(4-Chlorophenyl)-5-oxo-4-[(2S)-3,3,3-trifluoro-2-hydroxypropyl]-4,5-dihydro-1H-1,2,4-triazol-1-yl}methyl)-1-(5-chloropyridin-2-yl)-1H-1,2,4-triazol-5-yl]ethyl Carbamate], for which, at human V2 receptor, the IC50 came out at 0.0525 µM. For the same compound, on human V1a receptor, the IC50 worked out at 0.16 µM and the “ratio IC50 hV2/hV1a” value turned out to be 0.3.

On to `C[C@@H](OC(N)=O)c1nc(Cn2nc(-c3ccc(Cl)cc3)n(C[C@H](O)C(F)(F)F)c2=O)nn1-c1ccc(Cl)cn1` [Example 17, (1R)-1-[3-({3-(4-Chlorophenyl)-5-oxo-4-[(2S)-3,3,3-trifluoro-2-hydroxypropyl]-4,5-dihydro-1H-1,2,4-triazol-1-yl}methyl)-1-(5-chloropyridin-2-yl)-1H-1,2,4-triazol-5-yl]ethyl Carbamate], for which the values for the IC50 at human V2 receptor and at human V1a receptor were 0.15 µM and 0.557 µM, respectively. For the same compound, the “ratio IC50 hV2/hV1a” value at human V1a receptor was 0.3.

For `C[C@H](OC(N)=O)c1nc(Cn2nc(-c3ccc(Cl)cc3)n(C[C@H](O)C(F)(F)F)c2=O)nn1-c1ccncc1Cl` [Example 18, (1S)-1-[3-({3-(4-Chlorophenyl)-5-oxo-4-[(2S)-3,3,3-trifluoro-2-hydroxypropyl]-4,5-dihydro-1H-1,2,4-triazol-1-yl}methyl)-1-(3-chloropyridin-4-yl)-1H-1,2,4-triazol-5-yl]ethyl Carbamate], on human V2 receptor, the IC50 stood at 0.03 µM. Also, on human V1a receptor, the concentration for half-maximal inhibition (IC50) is 0.0077 µM and the “ratio IC50 hV2/hV1a” value is given as 3.9.

For the compound `C[C@H](OC(N)=O)c1nc(Cn2nc(-c3ccc(Cl)cc3)n(C[C@H](O)C(F)(F)F)c2=O)nn1-c1c(Cl)cncc1Cl` [Example 19, (1S)-1-[3-({3-(4-Chlorophenyl)-5-oxo-4-[(2S)-3,3,3-trifluoro-2-hydroxypropyl]-4,5-dihydro-1H-1,2,4-triazol-1-yl}methyl)-1-(3,5-dichloropyridin-4-yl)-1H-1,2,4-triazol-5-yl]ethyl Carbamate], the 50% inhibitory concentration (IC50) on human V2 receptor came to 0.063 µM. On human V1a receptor, the IC50 is 0.00155 µM and the “ratio IC50 hV2/hV1a” value worked out at 40.7.

For `C[C@@H](OC(N)=O)c1nc(Cn2nc(-c3ccc(Cl)cc3)n(C[C@H](O)C(F)(F)F)c2=O)nn1-c1c(Cl)cncc1Cl` [Example 20, (1R)-1-[3-({3-(4-Chlorophenyl)-5-oxo-4-[(2S)-3,3,3-trifluoro-2-hydroxypropyl]-4,5-dihydro-1H-1,2,4-triazol-1-yl}methyl)-1-(3,5-dichloropyridin-4-yl)-1H-1,2,4-triazol-5-yl]ethyl Carbamate], the IC50 at human V2 receptor amounted to 0.052 µM. Further, on human V1a receptor, the IC50 stood at 0.0033 µM and the “ratio IC50 hV2/hV1a” value is 15.8.
